Measured values: US8431603B2, “3-phenylpyrazolo[5,1-b]thiazole compounds” (Eisai R&D Management Co., Ltd., priority 2008, dated 2013)

Columns and labels:
Balb/c mice = assay: Light/dark box test in mice (anxiolytic effect); assay type: in vivo; conditions: for anxiolytic effect in the light/dark box test: 30 mg/kg, oral administration; for minimal effective dose: Mus musculus, 1 h, minimum dose significantly prolonging time spent in the light box vs vehicle, oral, one hour prior to test
Method: The light/dark box test in mice was carried out according to a modified method of Belzung C., Misslin R., Vogel E. et al. (Reference; Behavioural effects of the benzodiazepine receptor partial agonist RO16-6028 in mice, Psychopharmacology, 97, 388-391, 1989). The test apparatus used was a light/dark box comprising a covered black acrylic box (dark box; 15×10×20 cm), an uncovered white acrylic box (light box; 15×20×20 cm) and a black acrylic tunnel (10×7×4.5 cm) which connects dark box and light box and enables a mouse to freely move back and forth between the dark box and light box. In this test apparatus, however, a transparent acrylic polymer was used for the front side (20×20 cm) and back side (20×20 cm) of the light box to allow observation of the behavior. After setting illumination so that the light intensity of the floor of the light box was 150 Lux, 5-week-old male Balb/c mice (purchased from Nihon Charles River) were introduced into the dark box at the beginning of the test. For the test, the tested compound was suspended in 5% dimethylsulfoxide, 5% Cremopor EL and 90% physiological saline and orally administered to the test animals one hour prior to the start of the test.
The time spent in the light box was measured as an index of the anxiolytic effect, with “spend in the light box” defined as the state in which all limbs of the mice were on the floor of the light box. […] The statistical significance between the vehicle-treated group and the test compound-treated groups was analyzed by one way analysis of variance followed by Dunnett multiple comparison when multiple doses were set for the same test, and by the Mann-Whitney U test when only one dose was set.

human CRFR1 = molecular target: T1, human CRFR1 (Homo sapiens, UniProt P34998); assay: CRFR1 binding test (SPA competition with 125I-CRF, membrane fraction of CRFR1-expressing HEK293 cells); conditions: 100 pM 125I-CRF, room temperature, read-out: CRF1 receptor binding capacity IC50
T1 construct: The full-length CRFR1 gene was obtained by PCR using human brain cDNA library; expressed in transfected cells; pcDNA3.1 expression vector; membrane fraction used
T1 sequence (P34998 24-415): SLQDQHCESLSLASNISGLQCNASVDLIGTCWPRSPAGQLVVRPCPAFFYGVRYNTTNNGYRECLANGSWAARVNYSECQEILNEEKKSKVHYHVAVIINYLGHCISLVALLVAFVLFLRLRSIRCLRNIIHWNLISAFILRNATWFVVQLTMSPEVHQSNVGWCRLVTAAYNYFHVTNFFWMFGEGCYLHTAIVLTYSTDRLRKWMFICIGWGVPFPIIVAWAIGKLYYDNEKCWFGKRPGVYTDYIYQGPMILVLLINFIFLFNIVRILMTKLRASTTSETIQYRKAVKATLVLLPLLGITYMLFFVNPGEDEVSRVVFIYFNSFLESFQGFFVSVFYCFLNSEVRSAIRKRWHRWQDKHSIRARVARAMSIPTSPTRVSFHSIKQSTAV
Method: The binding capacities of the compounds of the invention for CRF1 receptor (CRFR1) were evaluated.
The membrane fraction of human CRFR1 high-expressing cells was used as the material for a CRFR1 binding experiment. The CRFR1-expressing cells were prepared in the following manner. The full-length CRFR1 gene was obtained by PCR using human brain cDNA library (QuickClone™ Clontech). The obtained DNA fragment was inserted into a cloning vector and the nucleotide sequence was confirmed. cDNA having the proper nucleotide sequence was linked to an expression vector (pcDNA3.1™, Invitrogen). The CRFR1 expression vector was introduced into HEK293 cell, and the resistant cells which proliferated in culture medium containing G418 (1 mg/ml) were cloned by the limiting dilution method. Out of the cloned cells, cells having high binding affinity between the membrane fraction per unit of protein and sauvagine were selected according to the following binding experiment. And the selected cells were used for the experiments.
The cloned cells obtained in (1) were collected and suspended in ice-cooled membrane buffer (50 mM Tris-HCl, 5 mM MgCl2, 2 mM EGTA, 1 mM DTT, protease inhibitor cocktail (COMPLETE™, Roche Diagnostics) pH 7.3), and then the cells were disrupted with a Polytron ([…]) while cooling on ice (level 5, 10 seconds, 2-5 times, ice-cooling) and then centrifuged (2,000 rpm, 5 minutes, 4° C.), after which the supernatant was collected. Membrane buffer was added to the precipitate, and the mixture was subjected to Polytron treatment (same conditions as above) and centrifuged (same conditions as above), and the obtained supernatant was collected and combined with the previous supernatant. This was centrifuged (13,000 rpm (18,000×g), 30 minutes, 4° C.) to prepare cell membranes. The precipitated cell membranes were suspended in membrane buffer and disrupted with a Polytron (level 5, 10 seconds, 3-5 times, ice-cooling) to prepare a dispersed suspension. The protein assay was performed.
The following method (1) or (2) was performed for use as the cell membrane fraction.
(1) The above dispersed suspension was diluted with membrane buffer containing 0.1% BSA to a protein concentration of 200 μg/ml, for use as the cell membrane fraction
(2) The above dispersed suspension was frozen for preservation, and if needed, thawed, re-dispersed and diluted for used as the cell membrane fraction.
A binding competition experiment with CRF was conducted by the SPA (GE Healthcare) method using a 96-well plate. A mixture of 5 μg of the cell membrane fraction protein, 1 mg of SPA beads and 100 pM ^125I-CRF (Perkin Elmer) was allowed to stand at room temperature for at least 2 hours in the presence of a test compound, and the radioactivity of each well after centrifugation (1,200 rpm (260×g), 5 minutes, room temperature) was measured with a TopCount (registered trademark; Perkin Elmer).
The radioactivity with addition of a 4,000-fold excess of non-radioactive sauvagine as the nonspecific binding was subtracted from each value, and the resulting value was expressed as a percentage (% of control), with 100% as the radioactivity without addition of the test compound (control). The IC50 value was calculated from a binding inhibition curve drawn with test compound concentration on the horizontal axis and % (% of control) on the vertical axis.

Row | Structure (SMILES) | anxiolytic effect in the light/dark box test (Balb/c mice) | minimal effective dose (Balb/c mice) [mg/kg] | IC50 (human CRFR1) [µM]
1 | CCCCN(c1c(OC)nn2c(-c3c(OC)cc(COCC)cc3OC)csc12)C1CCOCC1 [Example 2, N-Butyl-3-[4-(ethoxymethyl)-2,6-dimethoxyphenyl]-6-methoxy-N-(tetrahydro-2H-pyran-4-yl)pyrazolo[5,1-b][1,3]thiazole-7-amine] | statistically significant effects | 30 | 
2 | CCCN(c1c(OC)nn2c(-c3c(OC)cc(COC4CCC4)cc3OC)csc12)C1CCOCC1 [Example 17, 3-{4-[(Cyclobutyloxy)methyl]-2,6-dimethoxyphenyl}-6-methoxy-N-propyl-N-(tetrahydro-2H-pyran-4-yl)pyrazolo[5,1-b][1,3]thiazole-7-amine] |  |  | 0.036
3 | COc1cc(C#N)cc(OC)c1-c1csc2c(N(CC3CCOCC3)CC3CC3)c(OC)nn12 [Example 15, 4-{7-[(Cyclopropylmethyl)(tetrahydro-2H-pyran-4-ylmethyl)amino]-6-methoxypyrazolo[5,1-b][1,3]thiazol-3-yl}-3,5-dimethoxybenzonitrile] |  |  | 0.07
4 | CCOCc1cc(OC)c(-c2csc3c(N(CCC4CC4)C4CCOCC4)c(OC)nn23)c(OC)c1 [Example 3, N-(2-Cyclopropylethyl)-3-[4-(ethoxymethyl)-2,6-dimethoxyphenyl]-6-methoxy-N-(tetrahydro-2H-pyran-4-yl)pyrazolo[5,1-b][1,3]thiazole-7-amine] | statistically significant effects | 30 | 0.065
5 | COCc1cc(OC)c(-c2csc3c(N(CC4CC4C)C4CCOCC4)c(OC)nn23)c(OC)c1 (stereo not drawn) [Example 12, 3-[2,6-Dimethoxy-4-(methoxymethyl)phenyl]-6-methoxy-N-[(2-methylcyclopropyl)methyl]-N-(tetrahydro-2H-pyran-4-yl)pyrazolo[5,1-b][1,3]thiazole-7-amine] |  |  | 0.082
6 | COCc1cc(OC)c(-c2csc3c(N(CC4CC4)C4CCCOC4)c(OC)nn23)c(OC)c1 (stereo not drawn) [Example 11, N-(Cyclopropylmethyl)-3-[2,6-dimethoxy-4-(methoxymethyl)phenyl]-6-methoxy-N-(tetrahydro-2H-pyran-3-yl)pyrazolo[5,1-b][1,3]thiazole-7-amine] |  |  | 0.037
7 | CCCN(c1c(OC)nn2c(-c3c(OC)cc(COC)cc3OC)csc12)C1CCOCC1 [Example 10, 3-[2,6-Dimethoxy-4-(methoxymethyl)phenyl]-6-methoxy-N-propyl-N-(tetrahydro-2H-pyran-4-yl)pyrazolo[5,1-b][1,3]thiazole-7-amine] | statistically significant effects | 30 | 
8 | CCOCc1cc(OC)c(-c2csc3c(N(CC4CCC4)C4CCOCC4)c(OC)nn23)c(OC)c1 [Example 4, N-(Cyclobutylmethyl)-3-[4-(ethoxymethyl)-2,6-dimethoxyphenyl]-6-methoxy-N-(tetrahydro-2H-pyran-4-yl)pyrazolo[5,1-b][1,3]thiazole-7-amine] | statistically significant effects | 30 | 0.034
9 | CCCN(c1c(OC)nn2c(-c3c(Cl)cc(COC)cc3OC)csc12)C1CCOCC1 [Example 13, 3-[2-Chloro-6-methoxy-4-(methoxymethyl)phenyl]-6-methoxy-N-propyl-N-(tetrahydro-2H-pyran-4-yl)pyrazolo[5,1-b][1,3]thiazole-7-amine] | statistically significant effects | 30 | 
10 | CCCCN(c1c(OC)nn2c(-c3c(OC)cc(COC)cc3OC)csc12)C1CCOCC1 [Example 1, N-Butyl-3-[2,6-dimethoxy-4-(methoxymethyl)phenyl]-6-methoxy-N-(tetrahydro-2H-pyran-4-yl)pyrazolo[5,1-b][1,3]thiazole-7-amine] | statistically significant effects | 30 | 
11 | COCc1cc(OC)c(-c2csc3c(N(CC4CCC4)C4CCOCC4)c(OC)nn23)c(OC)c1 [Example 7, N-(Cyclobutylmethyl)-3-[2,6-dimethoxy-4-(methoxymethyl)phenyl]-6-methoxy-N-(tetrahydro-2H-pyran-4-yl)pyrazolo[5,1-b][1,3]thiazole-7-amine] |  |  | 0.046
12 | COc1cc(C#N)cc(OC)c1-c1csc2c(N(CC3CC3)CC3CCOC3)c(OC)nn12 (stereo not drawn) [Example 14, 4-{7-[(Cyclopropylmethyl)(tetrahydrofuran-3-ylmethyl)amino]-6-methoxypyrazolo[5,1-b][1,3]thiazol-3-yl}-3,5-diimethoxybenzonitrile] | statistically significant effects | 30 | 0.09
13 | CCCCCN(c1c(OC)nn2c(-c3c(OC)cc(COC)cc3OC)csc12)C1CCOCC1 [Example 8, 3-[2,6-Dimethoxy-4-(methoxymethyl)phenyl]-6-methoxy-N-pentyl-N-(tetrahydro-2H-pyran-4-yl)pyrazolo[5,1-b][1,3]thiazole-7-amine] |  |  | 0.063
14 | COCc1cc(OC)c(-c2csc3c(N(CC4CC4)C4CCOCC4)c(OC)nn23)c(OC)c1 [Example 9, N-(Cyclopropylmethyl)-3-[2,6-dimethoxy-4-(methoxymethyl)phenyl]-6-methoxy-N-(tetrahydro-2H-pyran-4-yl)pyrazolo[5,1-b][1,3]thiazole-7-amine] | statistically significant effects | 30 | 
15 | CCCN(c1c(OC)nn2c(-c3c(OC)cc(COCC)cc3OC)csc12)C1CCCOC1 (stereo not drawn) [Example 6, 3-[4-(Ethoxymethyl)-2,6-dimethoxyphenyl]-6-methoxy-N-propyl-N-(tetrahydro-2H-pyran-3-yl)pyrazolo[5,1-b][1,3]thiazole-7-amine] |  |  | 0.039
16 | COc1cc(OC)c(-c2csc3c(N(CC4CCOCC4)CC4CC4)c(OC)nn23)c(OC)c1 [Example 16, N-(Cyclopropylmethyl)-6-methoxy-N-(tetrahydro-2H-pyran-4-ylmethyl)-3-(2,4,6-trimethoxyphenyl)-pyrazolo[5,1-b][1,3]thiazole-7-amine] |  |  | 0.029
